According to patent publication US20170015696A1, “SOLID STATE FORMS OF SOFOSBUVIR” (RATIOPHARM GMBH, priority 2014, published 2017):

Test: Storage stability of the solid state form at ambient conditions
Type: physicochemical
Settings: stored at ambient conditions (e.g., 1 atmosphere at RT)
From the text: Form A has certain advantageous properties as discussed above. Particularly, form A is stable for a period of 16 months when stored at ambient conditions (e.g., 1 atmosphere at RT).

For `CC(C)OC(=O)[C@H](C)N[P@](=O)(OC[C@H]1O[C@@H](n2ccc(=O)[nH]c2=O)[C@](C)(F)[C@@H]1O)Oc1ccccc1` [form A, Sofosbuvir], the “period for which the form is stable when stored” value was 16 months.
